In PubChem BioAssay (NCI) one finds TGI and GI50 data, which are given here for 29 compounds.

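1) Cells in 96-well plates. 2) Compound, 48 h, 5 concentrations. 3) Linear interpolation between surrounding doses. 4) Unreached endpoint = highest concentration. The concentration for 50% growth inhibition is given as GI50. TGI is the concentration that stops growth completely.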

What all share (test): growth of human tumour cells (NCI), 48 h
Assay [1] relates to NCI-H23 lung.
In assay [2] the test system is SK-OV-3 ovarian.
The test system of assay [3] is DU-145 prostate.
Assay [4] deals with SNB-75 CNS.
The test system of assay [5] is NCI-H522 lung.
In assay [6] the test system is MALME-3M melanoma.
In assay [7] the test system is UACC-257 melanoma.
Assay [8] relates to LOX IMVI melanoma.
The subject of assay [9] is SK-MEL-28 melanoma.

As for `CN(C)C(=O)N1N[C@H](c2ccccc2)[C@@H]1c1ccccc1`, the TGI in assay [1], in assay [2], in [3], in assay [4], in assay [5] and in assay [6] was greater than 100 µM each time. For the same compound, the TGI in assay [7], in assay [8] and in [9] was greater than 100 µM each time.

With `O=[N+]([O-])c1c(O)c2nonc2c2nn(-c3ccccc3)nc12`, the TGI in assay [1], in assay [2], in [3], in assay [4], in assay [5] and in [6] was greater than 100 µM throughout. Further, the TGI in [7], in [8] and in [9] was greater than 100 µM in each case.

Consider `COc1cc2nc(-c3cccs3)nc(Nc3ccccc3C(=O)NN)c2cc1OC`, for which the TGI in assay [1], in [2], in [3], in assay [4], in assay [5] and in assay [6] was greater than 100 µM in each case. Moreover, the TGI in [7], in [8] and in assay [9] was greater than 100 µM throughout.

As to `c1ccc2c(c1)nnn2C1CCCCO1` (stereo not given), the TGI in assay [1], in assay [2], in assay [3], in [4], in assay [5] and in [6] was greater than 100 µM each time. Also, the TGI in assay [7], in [8] and in assay [9] was greater than 100 µM in each case.

For the compound `COc1cc(C(c2ccccc2)N2C(=O)CC[C@H]2C(=O)O)cc(OC)c1OC` (stereo not given in full), the TGI in [1], in assay [2], in assay [3], in [4], in assay [5] and in [6] was greater than 100 µM each time. In addition, the TGI in assay [7], in assay [8] and in [9] was greater than 100 µM each time.

Consider `CCOC(=O)Cc1[nH]c(C(=O)c2ccccc2)cc1C(=O)c1ccccc1`, for which the TGI is 33.4 µM in [1]; greater than 100 µM in [2]; greater than 10 µM in assay [3]; greater than 100 µM in [4]; greater than 100 µM in [5]; greater than 100 µM in assay [6]. The values for the TGI in assay [7], in assay [8] and in [9] were greater than 10 µM, greater than 100 µM and greater than 10 µM, respectively.

Regarding `N#Cc1c(/C=C/c2ccccc2)c2c([nH]c1=S)CCCCC2`, the TGI in assay [1], in [2], in [3], in assay [4], in [5] and in [6] was greater than 100 µM each time. For the same compound, the TGI in assay [7], in assay [8] and in [9] was greater than 100 µM each time.

Turning to `CCC[N+](C)(C)CCCNC(=O)c1c(O)c2ccccc2[nH]c1=O`, the TGI in assay [1], in assay [2], in [3], in [4], in assay [5] and in [6] was greater than 100 µM throughout. In addition, the TGI in assay [7], in assay [8] and in assay [9] was greater than 100 µM each time.

As for `Cc1cnc2c(c1)C(=O)N(c1ccc(Oc3ccccc3)cc1)S2(=O)=O`, the TGI in assay [1], in assay [2], in assay [3], in [4], in assay [5] and in [6] was greater than 100 µM each time. Besides, the TGI in [7], in assay [8] and in [9] was greater than 100 µM throughout.

Take `O=C(O)C(Cc1ccccc1)Cc1ccccc1`: the TGI in assay [1], in assay [2], in assay [3], in assay [4], in assay [5] and in assay [6] was greater than 100 µM each time. Moreover, the TGI in assay [7], in assay [8] and in assay [9] was greater than 100 µM in each case.

With `O=C(CCCCCNC(=O)c1ccc(Cl)cc1)NO`, the TGI in [1] was 51.5 µM; in [2], 41 µM; in [3] it was greater than 100 µM; in assay [4], 30.8 µM; in assay [5], 15.2 µM; in assay [6], greater than 100 µM. For the same compound, the TGI in assay [7] is 14.5 µM; in assay [8], 17 µM; in assay [9], greater than 100 µM.

For `COc1cc2nc(-c3cccs3)nc(N3CCN(c4ccccc4)CC3)c2cc1OC`, the TGI in [1], in assay [2], in [3], in assay [4], in assay [5] and in assay [6] was greater than 100 µM throughout. For the same compound, the TGI in assay [7], in assay [8] and in [9] was greater than 100 µM each time.

Regarding `COc1cc2c3c(n(C)c(=O)c2cc1OC)-c1cc2c(cc1/C3=C\CCCCl)OCO2`, the TGI in assay [1] was 40.9 µM; in assay [2] it was 49.3 µM; in [3] it was greater than 100 µM; in assay [4] it was 32.2 µM; in assay [5] it was greater than 100 µM; in assay [6], greater than 100 µM. Besides, the TGI in assay [7], in assay [8] and in [9] was greater than 100 µM each time. In addition, the GI50 in assay [3] is 35.9 µM.

On to `CC1(C)CCCCCC(O)C(O)CCC(C)(C)C1=O` (stereo not given), for which the TGI in assay [1], in [2], in assay [3], in [4], in [5] and in assay [6] was greater than 100 µM each time. Moreover, the TGI in assay [7], in assay [8] and in assay [9] was greater than 100 µM in each case.

Turning to `OC(CCN1CCN(CCOC(c2ccccc2)c2ccccc2)CC1)c1ccccc1` (stereo not given), the TGI is 63.1 µM in [1]; greater than 100 µM in [2]; greater than 100 µM in assay [3]; greater than 100 µM in assay [4]; 32.7 µM in [5]; 32.6 µM in assay [6]. Further, the TGI was found to be 34.8 µM in [7], 34.2 µM in assay [8] and 34.4 µM in assay [9].

For the compound `COC1(OC)CC(CO)(COc2cc(Cl)nc(N)n2)C1`, the TGI in assay [1], in assay [2], in assay [3], in assay [4], in assay [5] and in assay [6] was greater than 100 µM throughout. In addition, the TGI in assay [7], in assay [8] and in [9] was greater than 100 µM throughout.

Consider `CSc1nnnc2ccccc12`, for which the TGI in assay [1], in [2], in assay [3], in [4], in assay [5] and in assay [6] was greater than 100 µM each time. Further, the TGI in assay [7], in assay [8] and in assay [9] was greater than 100 µM each time.

As for `C=C1c2c(n(S(=O)(=O)c3ccccc3)c3ccccc23)[C@@]2(C(=O)OC)CC3C=CC2N1C3`, the TGI in [1], in assay [2], in [3], in [4], in [5] and in assay [6] was greater than 100 µM each time. In addition, the TGI in assay [7], in assay [8] and in assay [9] was greater than 100 µM in each case.

For `O/N=C1\C/C(=N\O)c2c(Br)sc(Br)c21`, the TGI in [1] was 59.3 µM; in assay [2], greater than 100 µM; in [3], greater than 100 µM; in [4], 51.3 µM; in assay [5], 32.6 µM; in assay [6], greater than 100 µM. For the same compound, the TGI in assay [7] was greater than 100 µM; in [8] it was 45.2 µM; in assay [9], 63.2 µM.

Consider `OCc1ccc2c(c1)CC1(Cc3ccccc3C1)C2`, for which the TGI in assay [1] is 82.3 µM; in assay [2], 84.8 µM; in assay [3] it was greater than 100 µM; in [4], 30.2 µM; in assay [5], 72.1 µM; in [6] it was 29.4 µM. The TGI amounted to 43 µM in assay [7], 29.7 µM in assay [8] and 49.6 µM in assay [9].

Take `C[Si](C)(C)OC1(C#N)c2ccccc2CCCC12CCCC2` (stereo not given): the TGI in assay [1] is greater than 100 µM; in assay [2] it was greater than 100 µM; in assay [3], greater than 100 µM; in assay [4], greater than 100 µM; in assay [5], 77.7 µM; in assay [6], greater than 100 µM. Further, the results for the TGI in assay [7], in [8] and in [9] were 58.3 µM, 49.6 µM and greater than 100 µM, respectively.

In the case of `O=C(CC(=O)N1N=C(c2ccccc2)C(N=Nc2ccc(S(=O)(=O)CCOS(=O)(=O)O)cc2)C1=O)Nc1ccc(Cl)cc1` (stereo not given), the TGI in assay [1], in assay [2], in assay [3], in assay [4], in assay [5] and in [6] was greater than 100 µM in each case. Further, the TGI in [7], in assay [8] and in assay [9] was greater than 100 µM throughout.

For `O=c1oc2ccccc2c(O)c1C(c1ccc(OCc2ccccc2)cc1)c1c(O)c2ccccc2oc1=O`, the TGI is greater than 100 µM in assay [1]; greater than 100 µM in [2]; greater than 100 µM in assay [3]; 65.6 µM in assay [4]; greater than 100 µM in assay [5]; greater than 100 µM in assay [6]. Further, the TGI in assay [7], in assay [8] and in assay [9] was greater than 100 µM in each case.

Take `COC(=O)NC(Cc1ccccc1)NC(=O)OC(C)(C)C` (stereo not given): the TGI in [1], in [2], in assay [3], in [4], in [5] and in [6] was greater than 100 µM throughout. Further, the TGI in assay [7], in [8] and in assay [9] was greater than 100 µM each time.

For the compound `CCSC12OC3(CCCCCN3C1=O)C1C(=O)N(c3ccccc3)C(=O)C12` (stereo not given), the TGI in assay [1], in [2], in assay [3], in assay [4], in assay [5] and in assay [6] was greater than 100 µM each time. The TGI in assay [7], in assay [8] and in assay [9] was greater than 100 µM throughout.

`O=C1CCCC1CC(CN1CCOCC1)Sc1nnnn1-c1ccccc1` (stereo not given): the TGI in assay [1] was greater than 100 µM; in assay [2] it was greater than 100 µM; in [3] it was greater than 100 µM; in assay [4], 96.7 µM; in assay [5], greater than 100 µM; in assay [6], greater than 100 µM. Also, the TGI in assay [7], in assay [8] and in [9] was greater than 100 µM each time.

`CC1(C)CCC2=C(O1)c1ccccc1C(=Nc1ccc([N+](=O)[O-])cc1)C2=O`: the GI50 in [1] was 18.3 µM; in assay [3] it was 16.8 µM; in [8] it was 7.59 µM. The TGI in assay [1] was determined as 52.9 µM; in [2], 34.8 µM; in [3] it was 30.4 µM; in [4] it was 38.4 µM; in assay [5], 30.1 µM; in assay [6] it was 29.7 µM. Besides, the TGI in assay [7] was 30.1 µM; in [8] it was greater than 100 µM; in assay [9] it was 29.8 µM.

Consider `Cc1ccc(/C=c2\c(=O)[nH]c3nc4ccccc4c(=O)n23)cc1`, for which the TGI in assay [1] is greater than 100 µM; in assay [2] it was greater than 100 µM; in assay [3], greater than 100 µM; in [4] it was 75.6 µM; in [5] it was greater than 100 µM; in assay [6], greater than 100 µM. Further, the TGI in assay [7], in assay [8] and in [9] was greater than 100 µM throughout.

On to `Clc1nc2nc(N3CCNCC3)nc(N3CCCC3)c2[nH]1`, for which the TGI in [1] worked out at 32 µM; in assay [2] it was 37.2 µM; in assay [3], 30.9 µM; in [4], 36 µM; in assay [5], 33.7 µM; in [6], 36.3 µM. Also, the TGI in assay [7] was 37.1 µM; in assay [8] it was 29.4 µM; in assay [9], 39.6 µM.
